“And” between values parts separate entries of the source, which are not always exact repeats. Identical values can stand only once. Toxic doses and inconclusive results are not listed. The calls were made as follows: active = survival T/C of 150% or more; inactive = T/C below 125% in these data.
Tested on: P388 leukemia ip, CD2F1 mice, survival T/C
Assay: NCI In Vivo Anticancer Drug Screen. Data for tumor model P388 Leukemia (intraperitoneal) in CD2F1 (CDF1) mice
Details: endpoint: median survival time, higher = longer survival
Method in brief: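 Mice carrying the transplanted tumor received test compound or vehicle. Survival was recorded in each group, and the value is the treated-group measurement divided by that of the vehicle-treated control group.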

[1] = dose: 60.0 mg/kg/injection, schedule: Q01DX005 (ip), vehicle: saline with Tween-80
[2] = dose: 120.0 mg/kg/injection, schedule: Q01DX005 (ip), vehicle: saline with Tween-80
[3] = dose: 240.0 mg/kg/injection, schedule: Q01DX005 (ip), vehicle: saline with Tween-80
[4] = dose: 50.0 mg/kg/injection, schedule: Q01DX005 (ip), vehicle: Klucel (hydroxypropylcellulose) (HPC)
[5] = dose: 100.0 mg/kg/injection, schedule: Q01DX005 (ip), vehicle: Klucel (hydroxypropylcellulose) (HPC)
[6] = dose: 50.0 mg/kg/injection, schedule: Q01DX005 (ip), vehicle: saline with Tween-80
[7] = dose: 100.0 mg/kg/injection, schedule: Q01DX005 (ip), vehicle: saline with Tween-80
[8] = dose: 200.0 mg/kg/injection, schedule: Q01DX005 (ip), vehicle: saline with Tween-80
[9] = dose: 50.0 mg/kg/injection, schedule: Q01DX009 (ip), vehicle: Klucel (hydroxypropylcellulose) (HPC)
[10] = dose: 100.0 mg/kg/injection, schedule: Q01DX009 (ip), vehicle: Klucel (hydroxypropylcellulose) (HPC)
[11] = dose: 12.5 mg/kg/injection, schedule: Q01DX009 (ip), vehicle: saline with Tween-80
[12] = dose: 100.0 mg/kg/injection, schedule: Q01DX009 (ip), vehicle: saline with Tween-80
[13] = dose: 200.0 mg/kg/injection, schedule: Q01DX009 (ip), vehicle: saline with Tween-80
[14] = dose: 50.0 mg/kg/injection, schedule: Q01DX009 (ip), vehicle: saline with Tween-80
[15] = dose: 200.0 mg/kg/injection, schedule: Q01DX005 (ip), vehicle: Klucel (hydroxypropylcellulose) (HPC)
[16] = dose: 25.0 mg/kg/injection, schedule: Q01DX005 (ip), vehicle: Klucel (hydroxypropylcellulose) (HPC)

Measured: T/C

C=C1C(=O)OC2/C=C(\C)C(=O)CC3OC(C)(C)OC3(C)CC(OC(=O)/C(C)=C/C)C12 (stereo not given)
inactive: dose: 10.0 mg/kg/injection, schedule: Q01DX009 (ip), vehicle: saline with Tween-80 99 % of control | dose: 20.0 mg/kg/injection, schedule: Q01DX009 (ip), vehicle: saline with Tween-80 105 % of control | dose: 40.0 mg/kg/injection, schedule: Q01DX009 (ip), vehicle: saline with Tween-80 90 % of control

O=S(=O)(Nc1ccccc1Cl)c1ccc(F)cc1
inactive: [1] 96 % of control | [2] 104 % of control | [3] 100 % of control

C/C=C/C=C/C1=C2C(=O)N(c3ccccc3)N=C2CC(C)O1 (stereo not given)
inactive: [4] 100 % of control | [5] 104 % of control

CCNC(=O)/C=C/c1cccc(Br)c1
inactive: [6] 105 % of control | [7] 105 % of control | [8] 98 % of control

COC(=O)C1C2C=CC(C1C(=O)OC)N(/C=C/c1ccccc1)C2=O (stereo not given)
inactive: dose: 100.0 mg/kg/injection, schedule: Q04DX003 (ip), vehicle: Klucel (hydroxypropylcellulose) (HPC) 96 % of control | dose: 200.0 mg/kg/injection, schedule: Q04DX003 (ip), vehicle: Klucel (hydroxypropylcellulose) (HPC) 95 % of control | dose: 400.0 mg/kg/injection, schedule: Q04DX003 (ip), vehicle: Klucel (hydroxypropylcellulose) (HPC) 97 % of control

ClCOc1cc(Cl)c(OCCl)cc1Cl
inactive: [9] 116 % of control | [10] 113 % of control | dose: 200.0 mg/kg/injection, schedule: Q01DX009 (ip), vehicle: Klucel (hydroxypropylcellulose) (HPC) 101 % of control

Nc1c(Br)cc(Br)c2c1C(=O)c1c(cccc1S(=O)(=O)O)C2=O
inactive: [6] 102 % of control | [7] 98 % of control | [8] 107 % of control

O=P(N1CCCC1)(N1CCCC1)N1CCCC1
inactive: dose: 50.0 mg/kg/injection, schedule: Q01DX009 (ip), vehicle: saline 100 % of control | dose: 100.0 mg/kg/injection, schedule: Q01DX009 (ip), vehicle: saline 102 % of control and 107 % of control | dose: 200.0 mg/kg/injection, schedule: Q01DX009 (ip), vehicle: saline 101 % of control | dose: 400.0 mg/kg/injection, schedule: Q01DX009 (ip), vehicle: saline 103 % of control

COC(=O)C1C(=O)OC(C(C)(C)Cl)C1C(=O)OC (stereo not given)
inactive: dose: 100.0 mg/kg/injection, schedule: Q04DX002 (ip), vehicle: saline with Tween-80 99 % of control | dose: 200.0 mg/kg/injection, schedule: Q04DX002 (ip), vehicle: saline with Tween-80 98 % of control | dose: 400.0 mg/kg/injection, schedule: Q04DX002 (ip), vehicle: saline with Tween-80 101 % of control

CC(=O)ON(C(C)=O)c1ccc(C(=O)OC2(C)CC(C)(C)N=N2)cc1 (stereo not given)
inactive: [11] 86 % of control | [12] 87 % of control | [13] 106 % of control

Cc1nn(-c2ccccc2)nc1CBr
inactive: [6] 97 % of control | [7] 106 % of control

O=[N+]([O-])c1ccc2c(c1)sc1cc([N+](=O)[O-])c(Br)cc12
inactive: [14] 104 % of control | [12] 102 % of control | [13] 112 % of control | dose: 400.0 mg/kg/injection, schedule: Q01DX009 (ip), vehicle: saline with Tween-80 103 % of control

Nc1nc2ccc(CNc3ccc(C(=O)NC(CC(=O)O)C(=O)O)cc3)cc2c(=O)[nH]1 (stereo not given)
inactive: dose: 12.5 mg/kg/injection, schedule: Q01DX009 (ip), vehicle: Klucel (hydroxypropylcellulose) (HPC) 100 % of control | dose: 25.0 mg/kg/injection, schedule: Q01DX009 (ip), vehicle: Klucel (hydroxypropylcellulose) (HPC) 96 % of control | [9] 99 % of control and 103 % of control | [10] 116 % of control

COc1ccc(-n2c(SCC(=O)NC(=O)Nc3ccccc3)nc3c(Br)cc(Br)cc3c2=O)cc1
inactive: dose: 7.5 mg/kg/injection, schedule: Q01DX005 (ip), vehicle: Klucel (hydroxypropylcellulose) (HPC) 97 % of control | dose: 15.0 mg/kg/injection, schedule: Q01DX005 (ip), vehicle: Klucel (hydroxypropylcellulose) (HPC) 92 % of control | dose: 30.0 mg/kg/injection, schedule: Q01DX005 (ip), vehicle: Klucel (hydroxypropylcellulose) (HPC) 86 % of control and 94 % of control | dose: 120.0 mg/kg/injection, schedule: Q01DX005 (ip), vehicle: Klucel (hydroxypropylcellulose) (HPC) 90 % of control | dose: 240.0 mg/kg/injection, schedule: Q01DX005 (ip), vehicle: Klucel (hydroxypropylcellulose) (HPC) 101 % of control

COc1ccccc1C(=O)C(CN(C)C)CN(C)C
inactive: dose: 1.87 mg/kg/injection, schedule: Q01DX005 (ip), vehicle: saline 105 % of control | dose: 3.75 mg/kg/injection, schedule: Q01DX005 (ip), vehicle: saline 108 % of control | dose: 7.5 mg/kg/injection, schedule: Q01DX005 (ip), vehicle: saline 112 % of control | dose: 60.0 mg/kg/injection, schedule: Q01DX005 (ip), vehicle: saline 112 % of control

Cc1ccc([B-]23OCC[N+]2(CNC(=O)C2=C(O)C4(O)C(=O)C5=C(O)c6c(O)cccc6C(C)(O)C5CC4C(N(C)C)C2=O)CCO3)cc1 (stereo not given)
inactive: [4] 108 % of control | [5] 108 % of control | [15] 113 % of control

C=C(C)C(=NC(C)(C)C)N(C(C)C)C(C)C
inactive: dose: 12.5 mg/kg/injection, schedule: Q01DX005 (ip), vehicle: Klucel (hydroxypropylcellulose) (HPC) 102 % of control | [11] 89 % of control | dose: 12.5 mg/kg/injection, schedule: Q01DX009 (ip), vehicle: saline 102 % of control | [16] 96 % of control | dose: 25.0 mg/kg/injection, schedule: Q01DX009 (ip), vehicle: saline with Tween-80 97 % of control | dose: 25.0 mg/kg/injection, schedule: Q01DX009 (ip), vehicle: saline 101 % of control | [4] 98 % of control | [14] 100 % of control and 120 % of control | [12] 108 % of control

Cc1cc([N+](=O)[O-])cc(C)c1OC(=O)Nc1c(Cl)cccc1Cl
inactive: dose: 30.0 mg/kg/injection, schedule: Q01DX005 (ip), vehicle: saline with Tween-80 101 % of control | [1] 100 % of control and 95 % of control | [2] 99 % of control and 100 % of control | [3] 94 % of control

CC[n+]1c(/C=C/c2ccc(N(CCC(=O)O)CCC(=O)O)cc2)sc2ccccc21
inactive: dose: 12.5 mg/kg/injection, schedule: Q04DX003 (ip), vehicle: saline with Tween-80 99 % of control | dose: 25.0 mg/kg/injection, schedule: Q04DX003 (ip), vehicle: saline with Tween-80 100 % of control | dose: 50.0 mg/kg/injection, schedule: Q04DX003 (ip), vehicle: saline with Tween-80 101 % of control

CN1C(=O)/C(=N\n2c(-c3ccccc3)nc3ccccc3c2=O)c2ccccc21
inactive: [16] 91 % of control | [4] 87 % of control and 88 % of control | [5] 102 % of control and 89 % of control | [15] 100 % of control

Cn1c(=O)c2c(ncn2C)n(C)c1=O.[Cl][Pt]([Cl])[Cl]
inactive: dose: 6.25 mg/kg/injection, schedule: Q01DX005 (ip), vehicle: water 116 % of control | dose: 12.5 mg/kg/injection, schedule: Q01DX005 (ip), vehicle: water 116 % of control and 124 % of control | dose: 25.0 mg/kg/injection, schedule: Q01DX005 (ip), vehicle: water 120 % of control | dose: 50.0 mg/kg/injection, schedule: Q01DX005 (ip), vehicle: water 121 % of control | dose: 100.0 mg/kg/injection, schedule: Q01DX005 (ip), vehicle: water 121 % of control

N#CCCn1ncc(C#N)c1N
inactive: [4] 99 % of control | [5] 107 % of control | [15] 90 % of control
